Measured values: PubChem BioAssay AID602267 (Broad Institute, 2012)
The source made the active and inactive calls.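 The calls were made as follows: active = signal falls with dose and the fitted half-maximal concentration is at or below twice the top valid tested dose; inconclusive = flat curve with 30 to 70% inhibition, or poor fit; inactive = wrong direction, flat within 30%, or potency beyond limit.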

The molecules below were run against Golgi-associated PDZ and coiled-coil motif-containing protein (Homo sapiens) (UniProt Q9HD26) (assay: blockers of CAL PDZ ligand groove binding – biochemical, fluorescence polarization, untagged CAL PDZ, cherry-pick, dose response (AID 602267)). Conditions: purified CAL PDZ, TMR-peptide fluorescence polarization, 1 h.

Compound | AC50
O=C(O)CSc1cc(NS(=O)(=O)c2ccc(Br)cc2)c2ccccc2c1O | 29.7 µM
COc1ccc2noc3c2c1C(=O)c1ccccc1-3 | 1.78 µM
CCOc1ccc(S(=O)(=O)Nc2cc(SCC(=O)O)c(O)c3ccccc23)cc1 | 39 µM

Same assay, conditions: purified CAL PDZ, TMR-peptide fluorescence polarization, 1 h; at 16 µM (top of the series)

Compound | activity change, negative = inhibition
O=C(c1ccccc1)C(c1ccccc1)c1ccccc1 | inactive
COc1cc(C2NC(=O)NC(C)=C2C(=O)OC2CCCCC2)cc(Br)c1O (stereo unspecified) | inactive
COc1ccc2c(c1)c(=Cc1ccc(N(C)C)cc1)c1cc(-c3ccccc3)[n+](C)n12 | inactive
CC1CCN(c2nc3c(c(=O)n(C)c(=O)n3C)n2CCSc2nc3ccccc3s2)CC1 | inactive

Same assay, conditions: purified CAL PDZ, TMR-peptide fluorescence polarization, 1 h; at 50 µM (top of the series)

Compound | activity change, negative = inhibition
Cc1ccc(CN2CCN(Cc3nc4ccccc4nc3C)CC2CCO)cc1 (stereo unspecified) | inactive
CC1=C(C#N)C(Nc2ccc(Cl)cn2)(C(F)(F)F)C(=O)N1 (stereo unspecified) | inactive
Cc1ccc2nc(-c3cccc(Br)c3)cc(C(=O)NC3=NCCS3)c2c1 | inactive
O=C(COC(=O)c1cccc(O)c1)NC(=O)Cc1ccccc1 | inactive
COc1ccc(CC(=O)NNC(=O)CCc2ccccc2)cc1OC | inactive
O=C(COC(=O)c1cccnc1Cl)Nc1ccc2c(c1)OCO2 | inactive
COCCOC(=O)c1c(C)oc2ccc(OS(C)(=O)=O)cc12 | inactive
CCCCNC(=S)NNc1c(Cl)cc(Cl)cc1Cl | inactive
O=S(=O)(c1cccc2ccccc12)N1CCCCC1 | inactive
O=C(COC(=O)CNC(=O)c1cccc([N+](=O)[O-])c1)NCc1ccco1 | inactive
Cc1ccc(C(=O)NC(=S)N2CCN(c3cc(C)ccc3C)CC2)cc1 | inactive
Cc1cc(C(=O)Nc2ccccc2Cl)c2ccccc2n1 | inactive
O=C(Oc1c(CN2CCOCC2)cc(Cl)c2cccnc12)c1ccc(F)cc1 | inactive
CC(=O)NC(Cc1ccccc1)C(C)=O (stereo unspecified) | inactive
CCOC(=O)c1ccc(N=C2SC(C(=O)NC)CC(=O)N2Cc2ccc(F)cc2)cc1 (stereo unspecified) | inactive
O=C(NCc1ccccc1)c1cc2ccc(O)cc2oc1=O | inactive
COc1ccc(C(=O)NC2(C(F)(F)F)C(=O)Nc3c2c(=O)[nH]c(=O)n3CCc2ccc(OC)c(OC)c2)cc1 (stereo unspecified) | inactive
CCOc1ccc(NC(=O)c2nsc(Cl)c2Cl)cc1 | inactive
O=C(CNCc1ccccc1)Nc1ccc(F)cc1 | inactive
Cc1ccccc1-n1c(C)c(C#N)c(=O)c(-[n+]2ccccc2)c1[S-] | inactive
CCNC(=S)N(CCN(CC)CC)Cc1cc2cc3c(cc2[nH]c1=O)OCCO3 | inactive

Compound | activity change, negative = inhibition
COc1ccc(NC(=O)c2cnn(-c3ccccc3)c2C)c(OC)c1 | inactive
COc1ccc(OC)c(NC(=O)CS(=O)(=O)Cc2ccccc2)c1 | inactive
COc1ccc(C2/C(=C(/O)c3ccc(C)cc3)C(=O)C(=O)N2C)c(OC)c1 (stereo unspecified) | inactive
C=CCNC(=O)CC1Nc2c3ccccc3nc(=S)n2C1=O (stereo unspecified) | inactive
CC(=O)Nc1cccc(NC(=O)CSc2nnc(NC(=O)c3ccco3)s2)c1 | inactive
CC1CCC(NS(=O)(=O)c2ccc3c(c2)n(C)c(=O)c(=O)n3C)CC1 (stereo unspecified) | inactive
COc1cc(Br)c(C(=O)c2nccc3cc(OC)c(OC)cc23)cc1OC | inactive
COc1ccc(CN(C)C(C)C(=O)NC2CCCc3ccccc32)cc1 (stereo unspecified) | inactive
Cc1ccc(/C=N/NC(=O)NN(C)c2ncc(C(F)(F)F)cc2Cl)cc1 | inactive
Cc1c(Cl)c(C(=O)N2CCCC2)nn1C | inactive
O=C(Nc1nc2ccccc2[nH]1)c1cc2ccccc2o1 | inactive
CC(C)(C)c1nn(-c2ccccc2)c2[nH]c(=O)c(C=O)cc12 | inactive
Cc1cccc(Nc2nc(-c3ccc(F)cc3)cs2)n1 | inactive
O=C(NCc1ccccc1Cl)C1CC(=O)N(Cc2ccccc2)C1 (stereo unspecified) | inactive
C=CCOc1ccc2ccccc2c1CNn1cn[nH]c1=S | inactive
Cc1ccccc1N1CCN(S(=O)(=O)c2ccccc2)CC1 | inactive
O=C(NCCc1ccccc1)C1CCC(=O)N(CCCN2CCCC2=O)C1 (stereo unspecified) | inactive
O=C(COC(=O)c1ccc(Cl)nc1)Nc1ccc(N2CCCCC2)cc1 | inactive
O=C(CCC(=O)N1CCN(c2ccccc2F)CC1)N1CCN(c2ccccc2)CC1 | inactive
CCN(CC)Cc1c(O)ccc2c1O/C(=C\C=C\c1ccccc1)C2=O | inactive
Cc1cc(C)nc(CCNC(=O)c2cc(COc3c(C)cccc3C)on2)n1 | inactive

Compound | activity change, negative = inhibition
Cc1cccc(C(=O)Nc2ccc(C(=O)/C=C/c3ccncc3)cc2)c1 | inactive
CCCOc1ccc(S(=O)(=O)Nc2ccccn2)c2ccccc12 | inactive
COc1ccc(-n2c(=S)[nH]c3c(sc(=S)n3-c3ccccc3)c2=O)c(OC)c1 | inactive
CCOC(=O)C1=C(C)OC(N)=C(C#N)C1c1cccc(C)c1 (stereo unspecified) | inactive
CC(O)CNCCCOc1cccc(Oc2ccccc2)c1 (stereo unspecified) | inactive
Cc1cc(C)c(S(=O)(=O)NCc2ccc3c(c2)OCO3)c(C)c1 | inactive
COc1ccccc1NC(=O)N(c1c(N)n(Cc2ccccc2)c(=O)[nH]c1=O)C1CCCC1 | inactive
CC1CCN(CCCNC(=O)c2ccc3c(=O)n(Cc4ccc(Cl)cc4)c(=S)[nH]c3c2)CC1 | inactive
O=C(Nc1nccs1)c1ccc(F)c(S(=O)(=O)N2CCOCC2)c1 | inactive
O=C(NNC(=S)NC(=O)c1ccc(Br)cc1)c1ccc([N+](=O)[O-])cc1 | inactive
Oc1ccc(/C=N\Nc2nncc(-c3ccccc3)n2)cc1 | inactive
COc1cc(NS(=O)(=O)c2ccc(NC(=S)Nc3ccccc3)cc2)nc(OC)n1 | inactive
Cc1ccc2nc(NC(=O)COC(=O)c3ccncc3)sc2c1 | inactive
NC(=O)C1CCN(c2ncccc2[N+](=O)[O-])CC1 | inactive
COc1cccc(N2CCN(C(=O)c3ccc(-c4ccccc4)cc3)CC2)c1 | inactive
Cc1ccc(S(=O)(=O)N2CCN(CCC#N)CC2)cc1 | inactive
COC(=O)c1ccc(CNC(=O)COC(=O)c2cc(Cl)nc(Cl)c2)cc1 | inactive
CCOC(=O)CCC(=O)Nc1ccc(S(=O)(=O)N2CCC(C)CC2)cc1 | inactive
CCCCOc1ccc(C(=O)N2CCNC(=O)C2CC(=O)OC(C)C)cc1 (stereo unspecified) | inactive
Cc1cc(C)c2nc(-c3ccncc3)cc(C(=O)N3CCN(Cc4ccccc4Cl)CC3)c2c1 | inactive
Cc1cccc(C(=O)Nc2nnc(COc3ccccc3)s2)c1 | inactive

Compound | activity change, negative = inhibition
Cc1ccc(S(=O)(=O)N2CCN(C(=O)c3ccccn3)CC2)cc1 | inactive
C/C(=N\NC(=O)C(O)c1ccccc1)c1ccc(Cl)s1 (stereo unspecified) | inactive
Cc1cc(C)c(C(=O)N2CCC3(CC2)OCCO3)c(C)c1 | inactive
COc1ccc(CSc2ncnc3sccc23)cc1F | inactive
O=C(CN(Cc1ccccc1)S(=O)(=O)c1ccc(F)cc1)NCCC1=CCCCC1 | inactive
O=C(NCCN1C(=O)S/C(=C\c2ccc(Cl)c(Cl)c2)C1=O)C1COc2ccccc2O1 (stereo unspecified) | inactive
COc1ccc(C(CNC(=O)COc2ccccc2-c2ccccc2)N2CCOCC2)cc1 (stereo unspecified) | inactive
Cc1ccc(S(=O)(=O)N2CCN(C(=O)c3cc(=O)c4ccccc4o3)CC2)cc1 | inactive
N#C/C(=C\c1c[nH]c2ccccc12)C(=O)NC1CC1 | inactive
CCOC(=O)c1c(CN2CCOCC2)oc2ccc(OC(C)=O)cc12 | inactive
O=S(=O)(/N=C(/Nc1ccc(Cl)c(S(=O)(=O)N2CCOCC2)c1)c1ccc(F)cc1)c1ccccc1 | inactive
Cc1ccnc2nc(C(=O)OCCOc3ccc(F)cc3)nn12 | inactive
CCC(=O)N1CCC(C(N)=O)(N2CCCCC2)CC1 | inactive
CCN(CC)S(=O)(=O)c1cc(C(=O)Oc2ccccc2OC)ccc1OC | inactive
O=C(NCC1CCCO1)c1cn(-c2ccccc2)nc1-c1ccc(F)cc1 (stereo unspecified) | inactive
O=C(NNS(=O)(=O)c1ccc(Cl)cc1)c1cccs1 | inactive
Cc1ccc(C(C)NC(=O)Cc2cccs2)c(C)c1 (stereo unspecified) | inactive
CCOc1ccc(C2=Nn3c(nnc3-c3ccco3)SC2)cc1 | inactive
CC1CCC(NC(=O)C2CCN(c3cnccn3)CC2)CC1 (stereo unspecified) | inactive
C=CCn1c(NC(=O)c2ccco2)nc2ccccc21 | inactive
CCOc1ccc(N(CC(=O)N2CCN(Cc3ccccc3)CC2)S(C)(=O)=O)cc1 | inactive
